Measured values taken from patent EP2157088A1, “INDICYANINE DYES AND THE DERIVATIVES THEREOF FOR ANALYSING BIOLOGICAL MICROMOLECULES” (UCHREZHDENIE ROSSIISKOI AKADEMII NAUK INSTITUT …, priority 2007, dated 2008).

Columns and labels:
Assay type in all cases: physicochemical
[1] = Absorption and fluorescence maxima of the dyes
Text: An insertion of methyl group at 5- and 7-positions of indolenyne cycle produces a bathochromic shift in the absorption and fluorescent spectra. As to the rest sulfur containing dyes, the spectral characteristics thereof appear to be in the same range (between about λmax 648 nm and λem 669 nm) (Fig. 1),

[2] = Quantum efficiency of fluorescence, measured versus a reference dye
Protocol: For all indodicarbocyanine dyes (I) (A1) - (A30) and (B1) - (B7) of the invention, there are determined the quantum efficiency of fluorescence in methanol and in aqueous phosphate buffered saline (Table 1, Fig. 3). The measurements are performed versus dyes of formula (I) (R1= -CH3, R2= R6= -SO3^-; R3= -(CH2)5COOH, R4= -C2H5, R5= -H) whose quantum efficiency of fluorescence in PBS is 0.27 (Mader O., K. Reider, H.-J. Egelhaaaf, R, Fischer, R. Brock, Structure Properties of Pentamethine Indocyanine Dyes: Identification of New Dyes for Life Science Applications. Bioconjugate Chem, 2004, vol. 15, pp. 70-78). In methanol, dyes (A10, A22, A25, A29, A30) have the upper-range of quantum efficiency of fluorescence (Φ ∼ 0.3), but in PBS, dyes (A10, A22, A25, A29, A30) have the maximal Φ -value.

[3] = Relative efficiency of fluorescence / absolute sensitivity of label, normalized to dye A30 in PBS; conditions: for Sensitivity of record 635/ 670: excitation 635 nm, record 670 nm; for Sensitivity of record 655/ 690: excitation 655 nm, record 690 nm; for Sensitivity of record max/ max: excitation and record in absorption and fluorescence maxima, ε*Φ normalized to A30 in PBS
Text: The data obtained were as follows: • on excitation and record in absorption and fluorescence maxima, the relative efficiency of fluorescence exceeds 0.80 for dyes (A10), (A22), (A23), (A25), and (A30) in methanol and for dyes (A22), (A25), and (A30) in PBS (Table 1, Fig. 4), whereas for dyes of formula (I) (R1 = -CH3, R2= R6= -SO3^-; R3= -(CH2)5COOH, R4= -C2H5; R5= -H) the values are 0.69 in methanol and 0.67 in PBS; • on excitation at wavelength 655 nm and record at 690 nm, the relative efficiency of fluorescence exceeds 0.25 for dyes (A25) and (A30) in methanol and is higher than 0.18 for dyes (A24) and (A30) in PBS (Table 1, Fig. 5), whereas for dyes of formula (I) (R1 = -CH3, R2 = R6= -SO3^-; R3= -(CH2)5COOH, R4= -C2H5; R5= -H) the values are 0.18 in methanol and 0.11 in PBS; • on excitation at wavelength 635 nm and record at 670 nm, the relative efficiency of fluorescence exceeds 0.50 for dyes (A1), (A11), (A23) in methanol and is higher than 0.45 for dyes (A22), (A25), and (A30) in PBS (Table 1, Fig. 6), whereas for dyes of formula (I) (R1= -CH3, R2= R6= -SO3^-; R3= -(CH2)5COOH, R4= -C2H5; R5= -H) the values are 0.44 in methanol and 0.38 in PBS.
Term sensitivity of fluorescent analysis is defined by the absolute sensitivity of label that may be represented as the product of molar extinction coefficient by quantum efficiency of fluorescence (ε*Φ). Thus, there are determined the absolute sensitivity of indodicarbocyanines (A1-A30, B1-B7) in appropriate absorption and fluorescence maxima in methanol and in aqueous phosphate buffered saline. The values are normalized to the maximal value obtained for dye (A30) in PBS (Table 1). In methanol, dyes (A10, A22, A23, A25, A30) have the upper-range of absolute sensitivity, but in PBS, dyes (A10, A22, A25, A29, A30) have the maximal values of sensitivity (Fig. 4).
To determine the most appropriate dyes for instrument setting, there are measured the relative efficiency of fluorescence of dyes at wavelength of excitation and record of the instrument (655 nm. / 690 nm). The maximal values appear to be specific to dyes (A25) and (A30) in methanol, and to dyes (A19, A22, A25, A29, A30) in PBS (Table 1, Fig. 5).
There are also measured the relative efficiency of fluorescence at wavelength of excitation and record of the instrument (635 nm / 670 nm). The maximal values appear to be specific to dyes (A1, A10, A11, A23) in methanol, and to dyes (A10, A22, A25, A29, A30) in PBS (Table 1, Fig. 6).

[4] = Molar extinction coefficient in methanol and PBS; set-up: ε·10^-5: unit not given here
Protocol: For all indodicarbocyanine dyes (I) (A1) - (A30) and (B1) - (B7) of the invention, there are determined the molar extinction coefficients in methanol and in aqueous phosphate buffered saline (PBS) (10 mM potassium phosphate buffer, sodium chloride concentration is 0.9%, pH 7.4). In methanol, indodicarbocyanine (A1, A8, A10-A12, A17, A23) has the upper-range of molar extinction coefficient (ε >[…]). In aqueous phosphate buffered saline (PBS), dyes (A10, A23, A30) have the maximal ε-value (Fig. 2).

[5] = PBS (10 mM potassium phosphate buffer, 0.9% sodium chloride, pH 7.4)

| Structure (SMILES) | λmax^abs ([1]; MeOH) [nm] | λmax^em ([1]; MeOH) [nm] | λmax^abs ([1]; PBS) [nm] | λmax^em ([1]; PBS) [nm] | Φ (quantum efficiency of fluorescence) ([2]; MeOH) | Φ (quantum efficiency of fluorescence) ([2]; PBS) | Sensitivity of record 635/ 670 ([3]; MeOH) | Sensitivity of record 655/ 690 ([3]; MeOH) | Sensitivity of record max/ max ([3]; MeOH) | Sensitivity of record 635/ 670 ([3]; PBS) | Sensitivity of record 655/ 690 ([3]; PBS) | Sensitivity of record max/ max ([3]; PBS) | ε·10^-5 ([4]; MeOH) | ε·10^-5 [4, 5] | molar extinction coefficient (ε) ([4]; in methanol) [M⁻¹ cm⁻¹] |
| --- | --- | --- | --- | --- | --- | --- | --- | --- | --- | --- | --- | --- | --- | --- | --- |
| CCN1C(=CC=CC=CC2=[N+](CCCCS(=O)(=O)[O-])c3ccc(C)cc3C2(C)CCCCC(=O)O)C(C)(C)c2ccccc21 (centres unmarked) [A4, 3-(4-Carboxybutyl)-N-(4-sulfobutyl)-3,3',3',5-tetramethyl-N'-ethylin:dodicarbpcyanine] | 651 | 668 | 649 | 665 | 0.14 | 0.10 | 0.243 | 0.143 | 0.381 | 0.162 | 0.054 | 0.255 | 2.14±0.03 | 2.1 ± 0.03 | – |
| CCN1C(=CC=CC=CC2=[N+](CCCCS(=O)(=O)[O-])c3ccc(C)cc3C2(C)CCCCC(=O)O)C(C)(C)c2cc(C)ccc21 (centres unmarked) [A5, 3-(4-Carboxybutyl)-3,3',3',5,5'-pentamethyl-N-(4-sulfobutyl)-N'-ethylindodicarbocyanine] | 654 | 674 | 653 | 670 | 0.16 | 0.09 | 0.212 | 0.229 | 0.391 | 0.136 | 0.096 | 0.238 | 2.05±0.02 | 1.96±0.02 | – |
| CC[N+]1=C(/C=C/C=C/C=C2/N(CCCCS(=O)(=O)[O-])c3ccc(C)cc3C2(C)CCCCC(=O)O)C(C)(C)c2cc(C)cc(C)c21 (centres unmarked) [A6, 3,3',3',5,5'.7'-hexamethyl-3-(4-carboxybutyl)-N-(4-sulfobutyl)-N'-ethylindodicarbocyanine] | 654 | 672 | 656 | 676 | 0.11 | 0.07 | 0.151 | 0.198 | 0.292 | 0.089 | 0.085 | 0.170 | 2.13±0.03 | 1.82±0.03 | – |
| CCN1/C(=C/C=C/C=C/C2=[N+](CC)c3ccc(S(=O)(=O)[O-])cc3C2(C)C)C(C)(CCCCC(=O)O)c2ccccc21 (centres unmarked) [A7, N,N'-diethyl-3-(4-carboxybutyl)-5'-sulfo-3,3',3'-trimethylindodicarbocyanine] | 647 | 660 | 646 | 663 | 0.23 | 0.14 | 0.359 | 0.102 | 0.514 | 0.207 | 0.049 | 0.353 | 1.78±0.02 | 1.80±0.03 | – |
| CC[N+]1=C(C=CC=CC=C2N(CCCCS(=O)(=O)[O-])c3ccccc3C2(C)C)C(C)(CCCCC(=O)O)c2ccccc21 (centres unmarked) [A8, 3-(4-carboxybutyl)-N'-(4-sulfobutyl)-3,3',3'-trimethyl-N-ethylindodicarbocyanine] | 647 | 662 | 646 | 660 | 0.26 | 0.15 | 0.493 | 0.134 | 0.730 | 0.262 | 0.054 | 0.433 | 2.20±0.02 | 2.13±0.02 | > 220000 |
